Legend:
PTEN = molecular target: T1, PTEN (Homo sapiens, UniProt P60484); assay: Malachite Green phosphate release assay, PTEN; type: biochemical
T1 construct: purchased
Protocol: The absorbance measurements shown correspond to liberated PO4 generated by recombinant PTEN (1.44 μg) when incubated with its substrate, PI (3,4,5)P3, as detected by a Malachite Green reporter.
(A) Purified, recombinant SHIP1 has significant activity as determined by the reduction in mean polarization units (mPu) in an FP assay designed for 5′-inositol phosphatases (Echelon Biosciences, Salt Lake City, Utah.). Note that no significant reduction in mP is obtained when the enzyme buffer without SHIP1 is added to the FP assay (Buffer) or when purified SHIP1 is assayed in the absence of its PI(3,4,5)P3 substrate (SHIP1 only).
Assay of SHIP1 enzymatic activity: A fluorescent polarization (FP) assay that detects the 5′-inositol phosphatase activity of SHIP1 was developed based on a previously established protocol [Drees B E, et al., Comb Chem High Throughput Screen (2003) 6(4):321-330] and was obtained from Echelon Biosciences (Salt Lake City, USA). Modifications of the protocol included the application of SHIP1 in the assay and an increase in the concentration of MgCl2 to […] to maximize the activity of SHIP1 in this assay. […]

[1] = tested on: Mac1+Gr1+ myeloid immunoregulatory cells; assay: FACS quantitation of Mac1+Gr1+ myeloid suppressor (MySC/MIR) cells in spleen and lymph node of treated mice; type: in vivo, mouse; details: for number of Mac1+Gr1+ MySC (MDSC): daily injection at 125 μM for 7 days; for number of MIR cells: daily i.p. injection at 60 μM for 7 days
Protocol: FACS quantitation of Mac1^+Gr1^+ Myeloid-Derived Suppressor Cells (Mac1^+Gr1^+ MySC) (A,B) and FoxP3^+CD4^+CD25^+ Treg cells (C,D) in spleen and lymph node of C57BL6 mice treated with NSC13480, vehicle or non-manipulated mice (Normal). ***p<0.001; *p<0.05.
In addition, both donor and host Treg cells can also limit or abrogate GvHD. […] (Paraiso, K. H., et al. 2007. J Immunol 178:2893). […] Adult mice were treated for 7 days with a daily injection of NSC13480 at 125 μM. The frequency of MySC and Treg cells was tested in the spleens of mice treated with NSC13480, the vehicle used for delivery of NSC 13480 and normal, untreated mice.
Expansion of the Mac1^+Gr1^+ MIR cell compartment can suppress GvHD. [Ghansah T, et al., J Immunol (2004) 173(12):7324-7330; Paraiso K H, et al., J Immunol (2007) 178(5):2893-2900; MacDonald K P, et al., J Immunol (2005) 174(4):1841-1850] Thus, the ability 3α-aminocholestane to expand the MIR compartment in peripheral lymphoid tissues, where GvHD and organ transplant rejection are primed, was tested. Adult mice were treated for 7 days with a daily intraperitoneal (i.p.) injection of 3α-aminocholestane at 60 μM. We then compared the frequency of MIR cells in the spleens and LN of mice treated with 3α-aminocholestane to that of control mice treated with either their respective vehicles or to unmanipulated mice. […] Thus, consistent with the findings in mice genetically ablated for SHIP1 expression during adult physiology [Paraiso K H, et al., J Immunol (2007) 178(5):2893-2900], inhibition of SHIP1 activity in adult mice expands the MIR cell compartment in peripheral lymphoid tissues.
Antibody staining and flow cytometry (Examples 1-6): Anti-CD16/32 was co-incubated with the samples to block Fc receptor binding. Antibodies used for staining included: NK1.1 (PK136); CD3e (145-2C11); Ly49G2 (4D11); Gr-1 (RB6-8C5); Mac-1(M1/70); CD11c (HL3); CD4 (GK1.5); CD25 (PC61) and were obtained from BD Pharmingen (San Jose, Calif.). FoxP3 (FJK-16s) was purchased from eBioScience (San Diego, Calif.). All samples were acquired on a FACSCalibur and analyzed using FlowJo8.7.1. For viable staining, dead cells were excluded from the analysis following cytometer acquisition of data by exclusion of the 7AAD dye. For staining of FoxP3, viable cells were first stained for extacellular markers followed by fixation and permeabilization to stain for the intracellular FoxP3.
Use of SHIP1 inhibitory compounds for in vitro and in vivo studies: For in vitro studies 3α-aminocholestane was suspended in 100% ethanol. […]
Antibody staining and flow cytometry (Examples 7-9): Anti-CD16/32 was incubated with the samples to block Fc receptor binding. […] All samples were acquired on a FACSCalibur and analyzed using FlowJo8.7.1. […]

T1 sequence (P60484 whole entry, species assumed): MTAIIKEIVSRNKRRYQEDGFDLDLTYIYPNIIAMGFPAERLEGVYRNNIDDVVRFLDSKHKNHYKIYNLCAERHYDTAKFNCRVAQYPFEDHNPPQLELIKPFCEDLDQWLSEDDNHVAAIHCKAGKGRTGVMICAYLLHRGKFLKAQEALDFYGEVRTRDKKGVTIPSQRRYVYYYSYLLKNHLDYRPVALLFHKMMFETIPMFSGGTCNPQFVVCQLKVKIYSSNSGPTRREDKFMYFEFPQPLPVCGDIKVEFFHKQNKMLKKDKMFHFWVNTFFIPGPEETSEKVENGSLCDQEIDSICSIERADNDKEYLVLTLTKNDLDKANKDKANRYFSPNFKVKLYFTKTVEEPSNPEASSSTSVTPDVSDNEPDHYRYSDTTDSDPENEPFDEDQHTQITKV

| SMILES | inhibition of PTEN (PTEN; at 100 μM, Malachite Green reporter, recombinant PTEN 1.44 μg) | number of Mac1+Gr1+ MySC (MDSC) ([1]; lymph node) | number of Mac1+Gr1+ MySC (MDSC) ([1]; spleen) | inhibition of PTEN activity (PTEN; at 1 mM, Malachite Green assay) | number of MIR cells ([1]; lymph node) | number of MIR cells ([1]; spleen) |
| --- | --- | --- | --- | --- | --- | --- |
| OC(c1cc(-c2ccccc2)nc2c1ccc1ccccc12)C1CCCCN1 (stereo not drawn) [NSC13480, (2-phenylbenzo[h]quinolin-4-yl)-piperidin-2-ylmethanol] | no significant inhibition | increased significantly | increased significantly | – | – | – |
| CC(C)CCC[C@@H](C)[C@H]1CC[C@H]2[C@@H]3CC[C@H]4C[C@H](N)CC[C@]4(C)[C@H]3CC[C@]12C [NSC23922, (3R,5S,8R,9S,10S,13R,14S,17R)-10,13-dimethyl-17-[(2R)-6-methylheptan-2-yl]-2,3,4,5,6,7,8,9,11,12,14,15,16,17-tetradecahydro-1H-cyclopenta[a]phenanthren-3-amine] | – | – | – | fails to inhibit | increased significantly | increased significantly |

Reference: patent US9006221B2, “Method of modulating ship activity” (H. Lee Moffitt Cancer Center and Reserach Institute, Inc., priority 2008, dated 2015)
